Test results as given in patent US9005962B2, “Regionalised endoderm cells and uses thereof” (The University Court of the University of Edinburgh, priority 2007, dated 2015).

What was measured:
Hex^RS ES cells [1] = test: ADE (H+C+) induction, two-step suspension (embryoid body) differentiation with serum day 0-2, flow cytometry for RS and Cxcr4; format: cell-based, mouse
Method: ADE was induced under serum-containing conditions using a 2-step protocol. ES cells were seeded onto non-coated 10 cm petri dishes (sterilin) at a density of 5×10^3 cells/ml in Glasgow minimum essential medium (G-MEM; GIBCO-BRL) supplemented with 10% fetal calf serum (FCS), 0.1 mM nonessential amino acids (GIBCO-BRL), 1 mM sodium pyruvate, 2 mM glutamine and 0.1 mM 2-mercaptoethanol (2ME). Following 2 days of culture the resulting embryoid bodies (EBs) were harvested by centrifugation at 500 rpm for 1 min and replated on 10 cm non-coated petri dishes at the same density in N2B27 culture medium (StemCellSciences) supplemented with 20 ng/ml activin A (R&D). The media was replaced 2 days later and then every 3 days for the duration of the experiment. For some experiments 20 ng/ml EGF, 10 ng/ml Bmp4, 20 ng/ml activin A (R&D), 1×10^−5M all-trans retinoic acid (Sigma) and 3 μM CHIR99021 (a gift from StemCellSciences) were added to the culture at the indicated timepoints.
(§1) FITC-conjugated rat anti-CD184 (CXCR4), FITC-conjugated rat anti-CD31 and FITC conjugated rat anti-CD45 were purchased from BD Pharmingen. EBs generated under various different differentiation conditions were dissociated by treatment with cell dissociation buffer (PBS based) (GIBCO-BRL). Cells were washed in PBS supplemented with 10% FCS (FB) and resuspended at a maximum density of 5×10^6 cells/ml. For surface staining 200 μl of cells were plated in a V shape 96 well polystyrene plate (Sterilin) in PBS supplemented with 1% serum of the species in which the antibody was manufactured. The FITC-conjugated antibody or a FITC-conjugated isotype control was added at a 1:100 dilution. Cells were incubated in the dark for 20 mins, washed 3 times with FB and resuspended in FB supplemented with Topro3-iodide (Invitrogen) to exclude dead cell from the analysis. Cells were analysed using a FACS Calibur (BD Biosciences) or sorted using a MoFlo MLS flow cytometer (DakoCytomation).
Mouse ES cells were cultured according to Li et al., (1995). ADE was induced under serum-containing conditions using a 2-step protocol. ES cells were seeded onto non-coated 10 cm petri dishes (Sterilin) at a density of 5×10^3 cells/ml in GMEM supplemented as described in Li et al., (1995) except in the absence of LIF. EBs were harvested after two days by centrifugation and replated in N2B27 medium (StemCellSciences) supplemented with 20 ng/ml activin A (R&D) and 20 ng/ml EGF (R&D). This media was replaced again two days later. 10 ng/ml BMP4, 20 ng/ml activin A (R&D) and 1×10^−5M all-trans retinoic acid (Sigma) were added where indicated.
(§2) FITC-conjugated rat anti-CD184 (Cxcr4), FITC-conjugated rat anti-CD31 and FITC conjugated rat anti-CD45 were purchased from BD Pharmingen. Cells were stained with Topro3-iodide (Invitrogen) to exclude dead cells from the analysis. Cells were analysed using a FACS Calibur (BD Biosciences) or sorted using a MoFlo MLS flow cytometer (DakoCytomation).

Hex^RS ES cells [2] = test: ADE (H+C+) induction, serum-free suspension (aggregation) culture, flow cytometry; format: cell-based
Method: For ADE induction under serum-free conditions in suspension culture, ES cells were seeded onto non-coated 10 cm Petri dishes at 5×10^3 cells/ml in N2B27 culture medium supplemented with 10 ng/ml Bmp4 and 20 ng/ml activin A. Following 2 days of culture the resulting EBs were harvested as above and replated on non-coated Petri dishes at the same density in SF03 culture medium (ref Tada 2005) supplemented with 20 ng/ml activin A and 20 ng/ml EGF. The media was replaced 2 days later and then every 3 days for the duration of the experiment. For some experiments 10 ng/ml Fgf4 (R&D), 10 ng/ml Bmp4, 20 ng/ml Activin A, 1×10^−5M all-trans retinoic acid, 100 ng/ml PD173074 (Sigma), 20 ng/ml EGF and 3 μM CHIR99021 were added to the culture at the indicated timepoints.
as §1, with “(DakoCytomation). […]” for “(DakoCytomation).”
FITC-conjugated rat anti-CD184 (Cxcr4), FITC-conjugated rat anti-CD31 and FITC conjugated rat anti-CD45 were purchased from BD Pharmingen. […] Cells were analysed using a FACS Calibur (BD Biosciences) or sorted using a MoFlo MLS flow cytometer (DakoCytomation).

Hex^RS ES cells [3] = test: ADE (H+C+) induction, serum-free adherent monolayer culture, flow cytometry, RT-PCR and immunostaining; format: cell-based; details: for ADE differentiation / ability to promote ADE formation: FIG. 25; for ADE differentiation: added to cultures for days 3-4 or days 3-7, PD173074 100 ng/ml, SU5402 25 μM; for ability to promote ADE formation: monolayer, FGFs at 10 ng/ml
Method: For ADE induction under serum-free conditions in adherent monolayer culture, ES cells were seeded onto gelatin coated 3 cm 6 well dishes (Iwaki) at a density of 1×10^4 cells/ml in N2B27 medium (StemCellSciences) supplemented with 10 ng/ml Bmp4, 20 ng/ml activin A and 10 ng/ml Fgf4. Following 2 days of culture the media was replaced with SF03 culture medium (Tada 2005) supplemented with 20 ng/ml activin A, 10 ng/ml Fgf4 and 20 ng/ml EGF. The media was replaced 2 days later and then every 3 days for the duration of the experiment. For some experiments 1×10^−5M all-trans retinoic acid, 100 ng/ml PD173074 and 3 μM CHIR99021 were added to the culture at the indicated timepoints.
as §1
Total RNA was prepared from a minimum of 1×10^4 cells from sorted cell fractions, EBs, monolayer differentiated cells or ES cells using Trizol reagent (Invitrogen). 1 μg of RNA was used as a template for cDNA synthesis using Superscript III (Invitrogen). Real-time RT-PCR was performed using a LightCycler 480 (Roche) and LightCycler 480 SYBR Green 1 Master (Roche). The following cycling conditions were used: denaturation: 95° C. 5 sec, amplification: 95° C. 5 sec, 58° C. 10 sec, 72° C. 20 sec (45 cycles), 81° C. 1 sec, melt: 95° C. 1 sec, 65° C. 10 sec, 95° C. −ramp 5 C per sec continuous, cool: […] 10 sec. Standard curves were generated from plasmid. Samples were normalized to β-actin or TATA-box binding protein (TBP) expression levels.
Sorted cells were seeded onto gelatin coated 24 well dishes (Iwaki). Adherence of cells to the substrate was enhanced by centrifugation at 1200 rpm for 3 mins. Sorted cells, monolayer differentiated cells and ES cells were washed in PBS, fixed in 4% paraformaldehyde for 10 mins and permeabilised by washing in PBS supplemented with 0.1% Triton X (PBST). Cells were treated with a blocking reagent (3% serum of same species as secondary antibody, 1% BSA in PBST) for 15 min before incubation with the primary antibody at 4° C. overnight. The cells were washed with PBST and incubated with the appropriate fluorescence-tagged secondary antibody for 2 hr at room temperature. The cells were washed with PBST and DAPI added during the final wash. The following primary antibodies were used, all are anti-mouse: anti-Oct3/4, anti-HNF-3β (Foxa2), anti-HNF-4α (Santa Cruz), anti-Cer11 (R&D), anti-E-cadherin (Takara Bio Inc) anti-alpha fetoprotein (NeoMarkers), anti-albumin (Bethyl laboratories inc). Anti-Pdx1 was a gift from P. Serup. […]
as §2

[4] = FGF signalling blocked for days 3-7
[5] = exogenous FGF4, defined monolayer culture (FIG. 22C, D)

## Cc1c[nH]c(-c2cnc(NCCNc3ccc(C#N)cn3)nc2-c2ccc(Cl)cc2Cl)n1 [CHIR99021]
Hex^RS ES cells [1]; addition at day 0-2, in the presence of serum
  induction of the H+C+ cell population: completely blocked
Hex^RS ES cells [2]; added during the first two days, serum-free, aggregation and monolayer (Table 7)
  total number of surviving cells at the end of the 7 day differentiation: significantly increased
Hex^RS ES cells [2]; serum-free differentiation (Table 7)
  total number of H+C+ cells produced: no or only very minor effects

## CCN(CC)CCCCNc1ncc2cc(-c3cc(OC)cc(OC)c3)c(NC(=O)NC(C)(C)C)nc2n1 [PD173074, reference compound]
Hex^RS ES cells [3]; [4]
  H+C+ and C+ populations: complete loss
  cell survival / viability: dramatically compromised
Hex^RS ES cells [3]
  ADE differentiation: inhibit ADE differentiation
Hex^RS ES cells [3]; inhibitor present for the entire protocol
  generation of C+ and H+C+ populations: unable to generate either population
Hex^RS ES cells [3]; inhibitor present for the first two days of differentiation, then removed
  number of C+ and H+C+ cells: reduced number

## Cc1c[nH]c(/C=C2\C(=O)Nc3ccccc32)c1CCC(=O)O [SU5402, reference compound]
Hex^RS ES cells [3]
  ADE differentiation: inhibit ADE differentiation

## CC1=C(/C=C/C(C)=C/C=C/C(C)=C/C(=O)O)C(C)(C)CCC1 [retinoic acid, all-trans retinoic acid, reference compound]
Hex^RS ES cells [1]; added either at day 0 or day 3 (Table 2)
  induction of the RS positive population: completely blocked
Hex^RS ES cells [1]; added either at day 0 or day 3, data not shown
  CXCR4 induction: without effecting

## FGF2: fibroblast growth factor, 10 ng/ml
Hex^RS ES cells [3]
  ability to promote ADE formation: have the ability to promote ADE formation

B1: FGF5: fibroblast growth factor, 10 ng/ml (protein, UniProt P12034 21-268, looked up)
Fibroblast growth factor 5: HGEKRLAPKGQPGPAATDRNPRGSSSRQSSSSAMSSSSASSSPAASLGSQGSGLEQSSFQWSPSGRRTGSLYCRVGIGFHLQIYPDGKVNGSHEANMLSVLEIFAVSQGIVGIRGVFSNKFLAMSKKGKLHASAKFTDDCKFRERFQENSYNTYASAIHRTEKTGREWYVALNKRGKAKRGCSPRVKPQHISTHFLPRFKQSEQPELSFTVTVPEKKKPPSPIKPKIPLSAPRKNTNSVKYRLKFRFG
Hex^RS ES cells [3]
  ability to promote ADE formation: not

B2: FGF10: fibroblast growth factor, 10 ng/ml (protein, UniProt O15520 38-208, looked up)
Fibroblast growth factor 10: QALGQDMVSPEATNSSSSSFSSPSSAGRHVRSYNHLQGDVRWRKLFSFTKYFLKIEKNGKVSGTKKENCPYSILEITSVEIGVVAVKAINSNYYLAMNKKGKLYGSKEFNNDCKLKERIEENGYNTYASFNWQHNGRQMYVALNGKGAPRRGQKTRRKNTSAHFLPMVVHS
Hex^RS ES cells [3]
  ability to promote ADE formation: not

B3: activin: secreted TGFβ ligand, activin A (R&D), 20 ng/ml (protein, UniProt P08476 311-426, looked up)
Inhibin beta A chain: GLECDGKVNICCKKQFFVSFKDIGWNDWIIAPSGYHANYCEGECPSHIAGTSGSSLSFHSTVINHYRMRGHSPFANLKSCCVPTKLRPMSMLYYDDGQNIIKKDIQNMIVEECGCS
modifications: Inhibin beta A chain
Hex^RS ES cells [1]; day 7, serum containing media 48 hr, then serum free media supplemented with activin 5 days
  cells RS positive: 6.8-8.6%

B4: FGF4: fibroblast growth factor, 10 ng/ml (R&D) (protein, UniProt P08620 31-206, looked up)
Fibroblast growth factor 4: APTAPNGTLEAELERRWESLVALSLARLPVAAQPKEAAVQSGAGDYLLGIKRLRRLYCNVGIGFHLQALPDGRIGGAHADTRDSLLELSPVERGVVSIFGVASRFFVAMSSKGKLYGSPFFTDECTFKEILLPNNYNAYESYKYPGMFIALSKNGKTKKGNRVSPTMKVTHFLPRL
Hex^RS ES cells [3]; FIG. 22E, FGF4 added solely during the second phase of differentiation
  H+C+ ADE: up to 20%
Hex^RS ES cells [3]
  ability to promote ADE formation: have the ability to promote ADE formation
Hex^RS ES cells [3]; addition of Fgf4, monolayer
  number of CXCR4 expressing cells: did not increase
Hex^RS ES cells [3]; [5]
  anterior markers Cer1 and Gsc: induction
  expression of Foxa2 and Sox17: increased
Hex^RS ES cells [3]; exogenous FGF4, defined monolayer culture (FIG. 22D)
  mesodermal and primitive streak gene expression: suppressing
Hex^RS ES cells [3]; monolayer cultures, inclusion in the differentiation protocol
  H+C+ cell number: doubled
